From PubChem BioAssay AID721 (PCMD, 2007)
Activity calls are given as the source filed them. No rule for the calls is given here.

Molecular target: Coagulation factor XI (Homo sapiens) (UniProt P03951)
Experiment: FXIa inhibitor IC50 values, dose response, biochemical, hits from single-well screen (AID 721)
Settings: purified factor XIa enzymatic assay, fluorescence

Sequence of Coagulation factor XI (Homo sapiens) (P03951 19-387 limits assumed): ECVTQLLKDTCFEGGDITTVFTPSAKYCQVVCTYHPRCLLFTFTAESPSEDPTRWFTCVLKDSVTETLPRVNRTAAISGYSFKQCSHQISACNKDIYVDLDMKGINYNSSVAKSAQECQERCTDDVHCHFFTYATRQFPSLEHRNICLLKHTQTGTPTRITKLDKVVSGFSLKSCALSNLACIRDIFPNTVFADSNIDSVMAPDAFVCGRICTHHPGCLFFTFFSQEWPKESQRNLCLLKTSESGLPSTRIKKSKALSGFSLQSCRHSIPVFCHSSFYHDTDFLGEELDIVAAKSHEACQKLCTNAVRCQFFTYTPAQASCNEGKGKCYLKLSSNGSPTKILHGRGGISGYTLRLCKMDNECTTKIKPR
Sequence of Coagulation factor XI (Homo sapiens) (P03951 388-625 limits assumed): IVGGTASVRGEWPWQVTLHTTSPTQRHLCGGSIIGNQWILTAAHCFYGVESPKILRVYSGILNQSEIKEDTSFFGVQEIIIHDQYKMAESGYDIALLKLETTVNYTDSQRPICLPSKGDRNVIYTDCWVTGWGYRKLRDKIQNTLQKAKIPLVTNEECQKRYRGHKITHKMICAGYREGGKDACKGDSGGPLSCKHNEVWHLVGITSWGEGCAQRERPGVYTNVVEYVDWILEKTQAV

Cc1ccc(N(C(=O)c2ccccn2)C2(C(=O)NC3CCCC3)CCCCC2)cc1
IC50: > 50 µM (inactive)

COc1cc(OC)c2c(N)c(C#N)c(C(F)(F)C(F)(F)F)nc2c1
IC50: > 50 µM (inactive)

COc1cc(/C=c2\sc3n(c2=O)CCCN=3)ccc1O
IC50: > 50 µM (inactive)

COc1ccc(OCCSc2ncn[nH]2)cc1
IC50: > 50 µM (inactive)

CCOc1cccc2cc(C(N)=O)c(=NCc3ccccc3)oc12
IC50: > 50 µM (inactive)

Cc1c(NC(=O)c2cc3ccccc3o2)c(=O)n(-c2ccccc2)n1C
IC50: > 50 µM (inactive)

N#Cc1ccc(NC(=O)COC(=O)CNC(=O)C2CCCCC2)cc1
IC50: > 50 µM (inactive)

Cc1ccccc1C(=O)N=c1sccn1C
IC50: > 50 µM (inactive)

O=S(=O)(Cc1ccccc1)N1CCC(c2nc(-c3cccs3)no2)CC1
IC50: > 50 µM (inactive)

Cc1ccc(NS(=O)(=O)c2ccc(OCC(=O)N3CCOCC3)cc2)cc1
IC50: > 50 µM (inactive)

O=C(CCCN1C(=O)c2ccccc2C1=O)NCC1CCCO1 (stereo not given)
IC50: 14.6 µM

COc1ccc2c(=O)cc(-c3ccccc3)n(C)c2c1
IC50: > 50 µM (inactive)

O=C(NC(C(=O)c1ccccc1)n1c(=O)cc[nH]c1=S)c1ccccc1 (stereo not given)
IC50: > 50 µM (inactive)

Cc1ccc(C(=O)n2nnc3ccccc32)cc1
IC50: 2.39 µM

CCc1ccc(CC2S/C(=C(\C#N)C(C)=O)NC2=O)cc1 (stereo not given)
IC50: > 50 µM (inactive)

CCC1(c2ccccc2)C(=O)N(C)C(=O)N(C)C1=O
IC50: > 50 µM (inactive)

Cc1cc(C)n2nc(C(=O)Nc3ccc4c(c3)OCO4)cc2n1
IC50: > 50 µM (inactive)

O=C(c1cn(-c2ccccc2)nc1-c1ccncc1)n1nnc2ccccc21
IC50: 0.707 µM

Cc1cc(=O)[nH]c(-n2[nH]c(C)cc2=O)n1
IC50: > 50 µM (inactive)

CCOC(=O)c1c(C)n(Cc2ccccc2)c2ccc(OCC(O)Cn3nc(C)cc3C)cc12 (stereo not given)
IC50: > 50 µM (inactive)

OCCCn1c(-c2ccccc2)nc(=S)c2c1CCCC2
IC50: > 50 µM (inactive)

Cn1c(SCC(=O)NC2CCCCC2)nnc1-c1cccc(N)c1
IC50: > 50 µM (inactive)

CCOC(=O)N=S(=O)(Oc1ccc([N+](=O)[O-])cc1)c1ccccc1 (stereo not given)
IC50: > 50 µM (inactive)

CCN(CC)CCNC(=O)C(C)c1nn(C)c(=O)c2ccccc12 (stereo not given)
IC50: > 50 µM (inactive)

Cc1ccc(NC(=O)CCn2cccc2)cc1
IC50: > 50 µM (inactive)

COc1ccc(CC(=O)NCc2ccc3c(c2)OCO3)cc1
IC50: > 50 µM (inactive)

COC(=O)c1sc(NC(=O)CC(C)C)c(C(=O)OC)c1C
IC50: > 50 µM (inactive)

Cc1c(O)ccc(C(=O)CN2C(=O)c3ccccc3C2=O)c1O
IC50: > 50 µM (inactive)

CCC(CO)NCc1ccc(OC2CCCC2)cc1 (stereo not given)
IC50: > 50 µM (inactive)

O=C(NCc1ccccc1)C1CCCN(S(=O)(=O)c2cccc3nonc23)C1 (stereo not given)
IC50: > 50 µM (inactive)

CCC1CC2CC(NC(C)=O)C1C2 (stereo not given)
IC50: 0.588 µM

COc1ccc(S(=O)(=O)N2CCC(C(=O)N3CCc4ccccc4C3)CC2)cc1Cl
IC50: 6.26 µM

Cc1cnc(C(=O)OCC(=O)NCc2ccccc2)cn1
IC50: > 50 µM (inactive)

COCCN=C1Sc2nc3c(C)cccc3cc2CN1Cc1ccco1
IC50: 0.745 µM

O=c1cccc2n1CC1CC2CN(S(=O)(=O)c2ccccc2)C1 (stereo not given)
IC50: > 50 µM (inactive)

CC(C)c1nc2ccc(NC(=O)C3CCCCC3)cc2[nH]1
IC50: > 50 µM (inactive)

CCOC(=O)c1c(C)nc2c(c1C)c(=O)oc1ccccc12
IC50: > 50 µM (inactive)

COC(=O)c1[nH]c2ccc(Br)cc2c1NC(=O)CN1CCCc2ccccc21
IC50: > 50 µM (inactive)

CCc1c(O)nc(SCC(=O)NC(C)(C)C)n(-c2ccccc2)c1=O
IC50: > 50 µM (inactive)

COc1cccc(C(=O)N(Cc2ccccc2)Cc2cc3cc4c(cc3[nH]c2=O)OCCO4)c1
IC50: 10.4 µM

O=C(c1ccc(F)cc1)N1CCN(C(=O)c2cccnc2)CC1
IC50: > 50 µM (inactive)

COc1ccc(Cn2nnnc2C(c2ccccc2Cl)N2CCC(C(N)=O)CC2)cc1 (stereo not given)
IC50: > 50 µM (inactive)

CCOc1ccc(S(=O)(=O)NCc2ccc(OC)cc2)c2cccnc12
IC50: > 50 µM (inactive)

CCCc1nc2ccccc2c(=O)n1-c1ccc(OC)cc1
IC50: > 50 µM (inactive)

O=S(=O)(Nc1cccc2nsnc12)c1ccccc1
IC50: 9.3 µM

O=C(Nc1ccccc1C(=O)N1CCOCC1)c1ccc(F)cc1
IC50: 21.4 µM

CCCC(=O)n1nc(-c2ccccc2)nc1SC
IC50: > 50 µM (inactive)

CCCN(CCC)C(C(=O)Nc1cccc(OC)c1)c1ccccc1 (stereo not given)
IC50: > 50 µM (inactive)

COC(=O)CSc1nnc(C)n1-c1cccc(OC)c1
IC50: 2.36 µM

CCCC1CCc2c(sc(N)c2C(N)=O)C1 (stereo not given)
IC50: > 50 µM (inactive)

COc1cc(OC)cc(-c2nnc(SCc3cccc(C(=O)O)c3)o2)c1
IC50: > 50 µM (inactive)

CCOc1cc(S(=O)(=O)N(Cc2ccccc2)Cc2ccccc2)c(OCC)cc1-n1cnnn1
IC50: > 50 µM (inactive)

CCc1ccc(NC(=O)Cn2nc(C(F)(F)F)c3c2CCC3)cc1
IC50: > 50 µM (inactive)

Cc1ccc(-c2csc(N3CCC(NS(=O)(=O)c4ccc5c(c4)OCCO5)CC3)n2)cc1
IC50: > 50 µM (inactive)

CCOC(=O)c1cc2c(ccn2C)n1CC(=O)N1CCC(C)CC1
IC50: 0.744 µM

COc1ccccc1-n1cnnc1SCC(=O)Nc1nc(C)c(Cl)cc1Cl
IC50: 10.2 µM

CNCCCc1ccccc1
IC50: > 50 µM (inactive)

N#Cc1cc2c(nc1SCC(=O)Nc1sc3c(c1C#N)CCC3)CCC2
IC50: > 50 µM (inactive)

O=C(Oc1cccc(-n2cnnn2)c1)c1ccco1
IC50: 4.06 µM

CCn1nc(CC(=O)Nc2nnc(CC(=O)N3CCCC3)s2)c2ccccc2c1=O
IC50: > 50 µM (inactive)

COC(=O)C(Cc1c[nH]c2ccccc12)NC(C)=O (stereo not given)
IC50: 6.69 µM

O=c1c(-c2cc3ccccc3o2)[n+]([O-])c2ccccc2n1OCc1ccccn1
IC50: > 50 µM (inactive)

Cc1cc(NC(=O)COC(=O)c2c(C)nn(Cc3ccccc3)c2C)no1
IC50: > 50 µM (inactive)

O=C(Oc1ccc2c(=O)c(Cl)coc2c1)c1cccnc1
IC50: > 50 µM (inactive)

CCn1c(SCC(=O)c2[nH]c(C)c(C(C)=O)c2C)nnc1-c1ccccc1
IC50: 7.44 µM

Cc1ccc(C(=O)n2nc(-c3cccnc3)nc2N)cc1
IC50: > 50 µM (inactive)

O=c1nc(-c2ccccc2)c2cc(Cl)ccc2[nH]1
IC50: > 50 µM (inactive)

C=CCn1c(=O)c2c(nc(Br)n2Cc2ccccc2Cl)n(C)c1=O
IC50: 0.638 µM

CN(CCOc1ccccc1)c1ccc(S(=O)(=O)N2CCCCC2)cn1
IC50: > 50 µM (inactive)

COc1ccc(OCC(=O)Nc2cc(-c3nn(C)c(=O)c4ccccc34)ccc2OC)cc1
IC50: > 50 µM (inactive)

Cn1nnnc1SCC(=O)N(C1CCCCC1)C1CCCCC1
IC50: > 50 µM (inactive)

O=C(CCSc1nnc2ccc3ccccc3n12)Nc1ccc(F)cc1
IC50: > 50 µM (inactive)

Cc1cccc(NC(=O)c2snc3c(=O)[nH]cnc23)c1
IC50: > 50 µM (inactive)

CNC(=O)COC(=O)c1[nH]c(C)c(C(C)=O)c1C
IC50: > 50 µM (inactive)

O=C(c1cccc2ccccc12)n1nnc2ccccc21
IC50: > 50 µM (inactive)
